Measurements published in patent publication US20220380374A1, “1,4-DIHYDROBENZO[D]PYRAZOLO[3,4-F][1,3]DIAZEPINE DERIVATIVES AND RELATED COMPOUNDS AS LRRK2, NUAK1 AND/OR TYK2 KINASE MODULATORS FOR THE TREATMENT OF E.G. AUTOIMMUNE DISEASE” (Origenis GMBH, priority 2019, published 2022).

Key:
[1] = target: T1, wt human TYK2, catalytic site (Homo sapiens, UniProt P29597); assay: HTRF KinEASE assay, TYK2; assay type: biochemical; settings: 1 μM ATP; read-out: IC50, inhibitory activity toward TYK2
T1 construct: 2 nM wt human TYK2, catalytic site (SignalChem/CAN); purchased SignalChem/CAN
T1 sequence (P29597 897-1176 limits assumed): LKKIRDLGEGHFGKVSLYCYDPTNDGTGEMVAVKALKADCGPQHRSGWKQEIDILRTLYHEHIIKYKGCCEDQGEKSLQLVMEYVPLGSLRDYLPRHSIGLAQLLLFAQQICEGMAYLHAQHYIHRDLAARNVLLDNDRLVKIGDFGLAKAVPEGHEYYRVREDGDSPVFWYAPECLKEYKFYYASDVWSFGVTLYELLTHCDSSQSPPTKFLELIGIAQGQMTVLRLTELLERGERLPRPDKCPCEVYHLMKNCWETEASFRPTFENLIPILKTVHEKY
Outline: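 2 nM wt human TYK2 catalytic domain with 1 μM biotinylated TK substrate and 1 μM ATP in 1× kinase buffer was incubated ≥30 min at room temperature. Antibody and streptavidin-XL665 were added, and HTRF emission ratios were read after 60 min.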

[2] = target: T2, wt human NUAK1, full length (Homo sapiens, UniProt O60285); assay: TR-FRET LanthaScreen Eu Kinase Binding Assay, NUAK1; settings: 5 nM Kinase Tracer 236; read-out: IC50, inhibitory activity toward NUAK1
T2 construct: 8 nM wt human NUAK1, full length (ThermoFisher/USA); purchased ThermoFisher/USA
T2 sequence (O60285 1-661): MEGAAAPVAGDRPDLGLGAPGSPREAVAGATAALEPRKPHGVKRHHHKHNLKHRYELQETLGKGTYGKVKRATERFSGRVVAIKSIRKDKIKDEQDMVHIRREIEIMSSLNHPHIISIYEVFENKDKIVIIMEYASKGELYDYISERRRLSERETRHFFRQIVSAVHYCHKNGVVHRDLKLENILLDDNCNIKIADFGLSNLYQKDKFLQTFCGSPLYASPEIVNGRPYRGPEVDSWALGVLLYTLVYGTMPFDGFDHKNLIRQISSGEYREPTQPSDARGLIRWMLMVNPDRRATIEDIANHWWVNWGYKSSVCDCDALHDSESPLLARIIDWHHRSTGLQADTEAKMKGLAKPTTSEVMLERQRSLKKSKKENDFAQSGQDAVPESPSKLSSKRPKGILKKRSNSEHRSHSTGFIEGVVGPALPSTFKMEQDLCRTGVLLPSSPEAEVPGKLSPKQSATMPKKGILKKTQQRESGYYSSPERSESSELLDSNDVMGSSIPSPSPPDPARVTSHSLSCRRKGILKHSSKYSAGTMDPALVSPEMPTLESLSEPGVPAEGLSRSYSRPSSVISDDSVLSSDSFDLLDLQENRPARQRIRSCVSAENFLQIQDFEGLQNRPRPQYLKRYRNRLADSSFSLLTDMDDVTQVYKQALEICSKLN
Outline: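 TR-FRET tracer-displacement binding with 8 nM full-length wild-type human NUAK1, 2 nM Eu-anti-His antibody and 5 nM Kinase Tracer 236 in 1× Kinase Buffer A (final). Compound, kinase/antibody and tracer incubated 1 h at room temperature; emission ratios analysed per kit protocol.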

SMILES	IC50 [1] [nM]	IC50 [2] [nM]
Fc1ccc2c(c1)-c1n[nH]cc1NC(c1c(F)cc(OC(F)(F)F)cc1F)=N2 [Compound 214, 5-(2,6-difluoro-4-(trifluoromethoxy)phenyl)-9-fluoro-2,4-dihydrobenzo[d]pyrazolo[3,4-f][1,3]diazepine]	100 to 1000	100 to 1000
Nc1ncc2c(n1)N=C(c1c(F)cccc1F)Nc1c[nH]nc1-2 [Compound 218, 5-(2,6-difluorophenyl)-2,4-dihydropyrazolo[4,3-d]pyrimido[5,4-f][1,3]diazepin-8-amine]	10 to 100	10 to 100
Fc1ccc(Cl)c(F)c1C1=Nc2ccccc2-c2[nH]ncc2N1 [Compound 18, 5-(3-chloro-2,6-difluorophenyl)-1,4-dihydrobenzo[d]pyrazolo[3,4-f][1,3]diazepine]	100 to 1000	100 to 1000
Fc1cccc(Cl)c1C1=Nc2ccc(Cl)cc2-c2[nH]ncc2N1 [Compound 37, 9-chloro-5-(2-chloro-6-fluorophenyl)-1,4-dihydrobenzo[d]pyrazolo[3,4-f][1,3]diazepine]	100 to 1000	100 to 1000
CC[C@H](C)Oc1cc2c(cc1F)-c1n[nH]cc1N=C(c1c(F)cccc1Cl)N2 [Compound 247, (S)-8-(sec-butoxy)-5-(2-chloro-6-fluorophenyl)-9-fluoro-2,6-dihydrobenzo[d]pyrazolo[3,4-f][1,3]diazepine]	10 to 100	10 to 100
Fc1cc(F)c(C2=Nc3ccc(Cl)cc3-c3n[nH]cc3N2)c(F)c1 [Compound 194, 9-chloro-5-(2,4,6-trifluorophenyl)-2,4-dihydrobenzo[d]pyrazolo[3,4-f][1,3]diazepine]	100 to 1000	10 to 100
O=C(NC1CCOCC1)c1ccc2c(n1)N=C(c1c(F)cccc1F)Nc1cn[nH]c1-2 [Compound 105, 5-(2,6-difluorophenyl)-N-(tetrahydro-2H-pyran-4-yl)-1,4-dihydropyrazolo[4,3-d]pyrido[3,2-f][1,3]diazepine-8-carboxamide]	10 to 100	100 to 1000
Fc1cc2c(cc1-c1cccnn1)N=C(c1c(F)cccc1F)Nc1c[nH]nc1-2 [Compound 225, 5-(2,6-difluorophenyl)-9-fluoro-8-(pyridazin-3-yl)-2,4-dihydrobenzo[d]pyrazolo[3,4-f][1,3]diazepine]	10 to 100	10 to 100

Now from value to molecule:

IC50 [1] [nM]	IC50 [2] [nM]	SMILES
100 to 1000	10 to 100	Cc1ccc2c(c1)-c1[nH]ncc1N=C(c1c(F)cccc1Cl)N2 [Compound 35, 5-(2-chloro-6-fluorophenyl)-9-methyl-1,6-dihydrobenzo[d]pyrazolo[3,4-f][1,3]diazepine]
10 to 100	10 to 100	Fc1cccc(F)c1C1=Nc2ccncc2-c2[nH]ncc2N1 [Compound 53, 5-(2,6-difluorophenyl)-1,4-dihydropyrazolo[4,3-d]pyrido[3,4-f][1,3]diazepine]
100 to 1000	10 to 100	Cc1ccc2c(c1)-c1[nH]ncc1NC(c1c(F)ccc(Br)c1Cl)=N2 [Compound 183, 5-(3-bromo-2-chloro-6-fluorophenyl)-9-methyl-1,4-dihydrobenzo [d]pyrazolo[3,4-f][1,3]diazepine]
10 to 100	10 to 100	Fc1cccc(F)c1C1=Nc2cn[nH]c2-c2cc(Cl)ncc2N1 [Compound 147, 9-chloro-5-(2,6-difluorophenyl)-1,6-dihydropyrazolo[4,3-d]pyrido[4,3-f][1,3]diazepine]
100 to 1000	< 10	COC(=O)Nc1ccc2c(c1)-c1[nH]ncc1NC(c1c(F)cccc1F)=N2 [Compound 165, methyl(5-(2,6-difluorophenyl)-1,4-dihydrobenzo[d]pyrazolo[3,4-f][1,3]diazepin-9-yl)carbamate]
10 to 100	100 to 1000	Fc1cccc(F)c1C1=Nc2cn[nH]c2-c2ccccc2N1 [Compound 8, 5-(2,6-difluorophenyl)-1,6-dihydrobenzo[d]pyrazolo[3,4-f][1,3]diazepine]
10 to 100	10 to 100	CC(C)(O)c1ccc2c(c1)NC(c1c(F)cccc1F)=Nc1cn[nH]c1-2 [Compound 98, 2-(5-(2,6-difluorophenyl)-1,6-dihydrobenzo[d]pyrazolo[3,4-f][1,3]diazepin-8-yl)propan-2-ol]
10 to 100	100 to 1000	Cc1cc2c(cc1C(=O)O)NC(c1c(F)cccc1F)=Nc1cn[nH]c1-2 [Compound 156, 5-(2,6-difluorophenyl)-9-methyl-1,6-dihydrobenzo[d]pyrazolo[3,4-f][1,3]diazepine-8-carboxylic acid]
